Read-outs that look alike come from different tables or passages of the source.
Tests used:
[1] = target: T1, human macrophage elastase (HME/hMMP-12) (Homo sapiens, UniProt P39900); experiment: In vitro HME inhibition test (standard or high-sensitivity); format: biochemical
T1 construct: 0.5 nM HME; purchased R&D Systems 917-MP
Protocol: The potency of the compounds according to the invention with respect to HME (MMP-12) is determined in an in vitro inhibition test. The HME-mediated amidolytic cleavage of a suitable peptide substrate leads to an increase in fluorescent light therein. The signal intensity of the fluorescent light is directly proportional to the enzyme activity. The active concentration of a test compound at which half the enzyme is inhibited (50% signal intensity of the fluorescent light) is reported as the IC50 value.
In a 384 hole microtiter plate, in a total test volume of 41 μl, the test buffer (0.1 M HEPES pH 7.4, 0.15 M NaCl, 0.03 M CaCl2, 0.004 mM ZnCl2, 0.02 M EDTA, 0.005% Brij®), the enzyme (0.5 nM HME; from R&D Systems, 917-MP, autocatalytic activation according to the manufacturer's instructions) and the intramolecularly quenched substrate [5 μM Mca-Pro-Leu-Gly-Leu-Glu-Glu-Ala-Dap(Dnp)-NH2; Bachem, M-2670] are incubated in the absence and presence of the test substance (as a solution in DMSO) at 37° C. for two hours. The fluorescence intensity of the test mixtures is measured (excitation […], emission 393 nm). The IC50 values are ascertained by plotting the fluorescent light intensity against the active ingredient concentration.
In this case, an enzyme concentration ten times lower is used (final concentration, for example, 0.05 nM) in order to achieve an elevated test sensitivity. The incubation period chosen for the test is correspondingly longer (for example 16 hours).

[2] = target: T2, MMP-3 (Homo sapiens, UniProt P08254); experiment: In vitro MMP-3 inhibition test; format: biochemical
T2 construct: purchased R&D Systems 513-MP
T2 sequence (P08254 100-477): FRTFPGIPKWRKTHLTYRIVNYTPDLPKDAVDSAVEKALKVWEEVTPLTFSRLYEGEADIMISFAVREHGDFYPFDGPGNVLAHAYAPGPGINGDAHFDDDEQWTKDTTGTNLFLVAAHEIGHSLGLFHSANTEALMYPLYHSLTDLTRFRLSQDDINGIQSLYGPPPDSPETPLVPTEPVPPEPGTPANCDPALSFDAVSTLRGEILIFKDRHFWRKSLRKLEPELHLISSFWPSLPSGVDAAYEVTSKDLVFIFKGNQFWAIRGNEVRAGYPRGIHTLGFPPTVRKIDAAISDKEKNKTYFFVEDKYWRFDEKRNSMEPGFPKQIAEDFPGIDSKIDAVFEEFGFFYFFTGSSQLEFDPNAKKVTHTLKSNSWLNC
From the text: The MMP-mediated amidolytic cleavage of a suitable peptide substrate leads to an increase in fluorescent light here too. The signal intensity of the fluorescent light is directly proportional to the enzyme activity. The active concentration of a test compound at which half the enzyme is inhibited (50% signal intensity of the fluorescent light) is reported as the […].
Recombinant MMP-3 (from R&D Systems, 513-MP) is chemically activated in accordance with the manufacturer's instructions using APMA. 1 μl of the test compound to be analysed (as a solution in DMSO, suitable concentrations, for example, 1 nM to 30 μM) is pipetted into 24 μl of activated enzyme (final concentration, for example, 2 nM) in reaction buffer (50 mM Tris/HCl pH 7.5, 10 mM CaCl2, 150 mM NaCl, 0.05% Brij®-35) in a white 384-hole microtiter plate (MTP). The enzymatic reaction is started by adding the intramolecularly quenched Mca-Arg-Pro-Lys-Pro-Val-Glu-Nval-Trp-Arg-Lys(Dnp)-NH2 substrate (final concentration, for example, 10 μM; R&D Systems, ES-002), so as to result in a total test volume of 50 μl. The course of the MMP-3 reaction is measured by measuring the fluorescence intensity (excitation 320 nm, emission 410 nm) over a suitable period of time (for example over 120 min at a temperature of 32° C.).

[3] = Determination of solubility in PBS buffer pH 6.5; conditions: PBS buffer pH 6.5, 1% DMSO, room temperature, 24 h
Protocol: The test substance is dissolved in DMSO. An aliquot is taken from this solution and introduced into PBS buffer pH 6.5 (DMSO content: 1%). This solution/suspension is agitated at room temperature for 24 h. After ultracentrifugation at 114000 g for 30 min, the supernatant is removed, diluted with acetonitrile/water 8:2 and analysed by LC-MSMS. Quantification is effected by means of a five-point calibration curve of the test compound in DMSO.

[4] = standard or high-sensitivity HME inhibition test, read-out: HME/hMMP-12 IC50
[5] = absence of serum albumin (BSA), read-out: HME IC50 (−BSA)

T1 sequence (P39900 106-470): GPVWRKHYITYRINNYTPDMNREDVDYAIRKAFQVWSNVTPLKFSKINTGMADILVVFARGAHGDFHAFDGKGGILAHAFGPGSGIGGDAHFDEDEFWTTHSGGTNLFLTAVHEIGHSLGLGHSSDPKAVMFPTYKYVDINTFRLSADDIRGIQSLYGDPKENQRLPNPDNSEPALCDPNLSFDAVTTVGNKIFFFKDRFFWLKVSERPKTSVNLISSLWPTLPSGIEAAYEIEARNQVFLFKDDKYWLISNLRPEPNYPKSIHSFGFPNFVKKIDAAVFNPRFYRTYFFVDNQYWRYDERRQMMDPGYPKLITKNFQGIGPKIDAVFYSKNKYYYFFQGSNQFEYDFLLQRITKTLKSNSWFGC

| IC50 [1, 4] | IC50 [2] | Compound | IC50 [1, 5] | Solubility [3] |
| --- | --- | --- | --- | --- |
| 0.031 nM | 190 nM | O=C(O)[C@H]1[C@H](Cn2nnc3ccc(C(F)(F)F)cc3c2=O)CC[C@@H]1C(=O)c1ccc(OCC2CCOCC2)cc1 (racemic) [Example 7, (+/−)-(1RS,2SR,5RS)-2-{[4-Oxo-6-(trifluoromethyl)-1,2,3-benzotriazin-3(4H)-yl]methyl}-5-[4-(tetrahydro-2H-pyran-4-ylmethoxy)benzoyl]cyclopentanecarboxylic acid] |  |  |
| 0.026 nM | 95 nM | O=C(O)[C@@H]1[C@@H](Cn2nnc3ccc(C(F)(F)F)cc3c2=O)CC[C@H]1C(=O)c1ccc(SCC2CCOCC2)cc1 (single isomer, unassigned) [Example 15, (+)-(1RS,2SR,5RS)-2-{[4-Oxo-6-(trifluoromethyl)-1,2,3-benzotriazin-3(4H)-yl]methyl}-5-{4-[(tetrahydro-2H-pyran-4-ylmethyl)sulphanyl]benzoyl}cyclopentanecarboxylic acid] | 0.026 nM |  |

| Compound | IC50 [1, 4] | IC50 [2] | IC50 [1, 5] | Solubility [3] |
| --- | --- | --- | --- | --- |
| (+)-(1RS,2SR,5RS)-2-{[4-Oxo-6-(trifluoromethyl)-1,2,3-benzotriazin-3(4H)-yl]methyl}-5-[4-(tetra-hydro-2H-pyran-4-ylmethoxy)benzoyl]cyclopentanecarboxylic acid [Example 8] | 0.016 nM | 100 nM | 0.016 nM | 4.5 µg/mL |

From patent publication US20170114049A1, “2,5-DISUBSTITUTED CYCLOPENTANE CARBOXYLIC ACIDS FOR THE TREATMENT OF RESPIRATORY TRACT DISEASES” (BAYER PHARMA AKTIENGESELLSCHAFT, priority 2014, published 2017)
